# Patent publication US11707447B1
# Entries after “also recorded” stand apart in the source; their conditions may differ.
# How the values were obtained:
# [1] = Stability in enzyme-free control buffer; type: in vitro ADME; conditions: enzyme-free buffer pH 7.4
# Description: A fundamental evaluation in drug development is the assessment of absorption, distribution, metabolism, excretion, and pharmacokinetics (ADME/PK) (Eddershaw et al., 2000, Drug Discovery Today 5(9): 409-414). […] Drug stability upon exposure to human liver microsomes and liver S9 cellular fractions is a common in vitro assay to approximate in vivo, liver-based drug metabolism (Richardson et al., 2016 Drug Metabolism Letters 10:83-90). First-pass metabolism is also often approximated in vitro using intestinal microsome and cellular S9 fractions (Hatley et al., 2017, Biopharmaceuticals & Drug Disposition, 38(2):155-160). […] Supernatants were analyzed for the presence of candidate prodrugs (parent molecule) and psilocin (the predicted metabolite) using Orbitrap LC-MS (Thermo Scientific) using previously described methods (Menéndez-Perdomo et al., 2021, J. Mass Spectrom., 56: e4683). […] Assay concentrations (μM) of both parent ‘prodrug’ molecule and psilocin metabolite, as quantified through LC-MS using routine standard curve procedures, were plotted as functions of assay time (minutes). The metabolism rate (T1/2) was determined from the metabolism curve plot using the one phase decay feature of GraphPad PRISM software (Version 9.2.0). The quantity of parent prodrug at time zero was set as 100%.
# [2] = Mouse pharmacokinetic (PK) evaluation of drug metabolism to psilocin; conditions: for Plasma concentration of psilocin: 24 h
# in vitro = in vitro ADME, human
# Description: (§1) A fundamental evaluation in drug development is the assessment of absorption, distribution, metabolism, excretion, and pharmacokinetics (ADME/PK) (Eddershaw et al., 2000, Drug Discovery Today 5(9): 409-414). […] Drug stability upon exposure to human liver microsomes and liver S9 cellular fractions is a common in vitro assay to approximate in vivo, liver-based drug metabolism (Richardson et al., 2016 Drug Metabolism Letters 10:83-90). First-pass metabolism is also often approximated in vitro using intestinal microsome and cellular S9 fractions (Hatley et al., 2017, Biopharmaceuticals & Drug Disposition, 38(2):155-160). Further, it is well known that human serum, and particularly circulating serum esterases can contribute to systemic drug metabolism (Williams, F M 1987, Pharmacology and Therapeutics, 34:99-109). Many pharmacological agents are classified as prodrugs, as they undergo metabolic transformation in vivo upon administration to release the active drug compound into the systemic compartment (Zawilska J B, et al. 2013, Pharmacological Reports, 65:1-14). Psilocybin, a serotonergic psychedelic agent, is well known prodrug that is metabolized into the psychoactive product, psilocin (Dinis-Oliveira, R J 2017, Drug Metabolism Reviews, 49(1):84-91). To evaluate the capacity of test molecules to similarly serve as prodrugs of psilocin, time-dependent, metabolic stability assays using human AB serum, human intestinal microsomes (HIM), human intestinal S9 fractions (HIS9), human liver microsomes (HLM), human liver S9 fractions (HLS9), human alkaline phosphatase, and porcine esterase were performed. […] Liquid chromatography coupled mass spectrometry (LC-MS) was employed to track the conversion of the test molecules into psilocin. All intestinal and liver fractions and NADPH RapidStart reagent was purchased from Sekisui/XenoTech. Human AB serum was purchased from Sigma. For intestine and liver metabolism assays, 2.5 μM candidate compounds were incubated in 400 μg/ml of each cellular fraction (HLM, HLS9, HIM, or HIS9) in 50 mM potassium phosphate buffer (pH 7.4) containing 3 mM MgCl2 and 1 mM EDTA supplemented with NADPH RapidStart at 37° C. Samples were taken at the start of the assay, and at every 20 minutes for 2 hours. Time-point samples were precipitated with 1:1 volume of acetonitrile to quench the reaction before centrifugation at 4000×g for 20 minutes. Supernatants were analyzed for the presence of candidate prodrugs (parent molecule) and psilocin (the predicted metabolite) using Orbitrap LC-MS (Thermo Scientific) using previously described methods (Menéndez-Perdomo et al., 2021, J. Mass Spectrom., 56: e4683). The serum assays were carried out in 10% human AB serum in 50 mM potassium phosphate buffer (pH 7.4) containing 3 mM MgCl2 and 1 mM EDTA. Bovine alkaline phosphatase assays were carried out using one unit of purified enzyme in 50 mM potassium phosphate buffer (pH 7.4) containing 3 mM MgCl2 and 1 mM EDTA. Porcine esterase assays were carried out using one unit of purified enzyme in 50 mM potassium phosphate buffer (pH 7.4) containing 3 mM MgCl2 and 1 mM EDTA. Assay concentrations (μM) of both parent ‘prodrug’ molecule and psilocin metabolite, as quantified through LC-MS using routine standard curve procedures, were plotted as functions of assay time (minutes). The metabolism rate (T1/2) was determined from the metabolism curve plot using the one phase decay feature of GraphPad PRISM software (Version 9.2.0). The quantity of parent prodrug at time zero was set as 100%.
# Positive controls were first tested to ensure that assays were functioning properly.
# [3] = In vitro metabolic stability / psilocin release, human AB serum; type: in vitro ADME; conditions: AB serum
# Description: as §1, with “For intestine and liver metabolism assays, 2.5 μM candidate compounds were incubated in 400 μg/ml of each cellular fraction (HLM, HLS9, HIM, or HIS9) in 50 mM potassium phosphate buffer (pH 7.4) containing 3 mM MgCl2 and 1 mM EDTA supplemented with NADPH RapidStart at 37° C. Samples were taken at the start of the assay, and at every 20 minutes for 2 hours. Time-point samples were precipitated with 1:1 volume of acetonitrile to quench the reaction before centrifugation at 4000×g for 20 minutes.” left out, “The serum assays were carried out in 10% human AB serum in 50 mM potassium phosphate buffer (pH 7.4) containing 3 mM MgCl2 and 1 mM EDTA. Bovine alkaline phosphatase assays were carried out using one unit of purified enzyme in 50 mM potassium phosphate buffer (pH 7.4) containing 3 mM MgCl2 and 1 mM EDTA. Porcine esterase assays were carried out using one unit of purified enzyme in 50 mM potassium phosphate buffer (pH 7.4) containing 3 mM MgCl2 and 1 mM EDTA.” left out, “100%. […]” for “100%.”
# 5-HT1A receptor = biological target: T1, 5-HT1A receptor (Homo sapiens, UniProt P08908); assay: cAMP-Glo assay in +5-HT1A / -5-HT1A CHO-K1 cells; type: cell-based; conditions: forskolin-stimulated +5-HT1A vs -5-HT1A cells, increasing ligand
# T1 construct: host or cells: CHO-K1 (co-expressing Ga15)
# T1 sequence (P08908 1-422): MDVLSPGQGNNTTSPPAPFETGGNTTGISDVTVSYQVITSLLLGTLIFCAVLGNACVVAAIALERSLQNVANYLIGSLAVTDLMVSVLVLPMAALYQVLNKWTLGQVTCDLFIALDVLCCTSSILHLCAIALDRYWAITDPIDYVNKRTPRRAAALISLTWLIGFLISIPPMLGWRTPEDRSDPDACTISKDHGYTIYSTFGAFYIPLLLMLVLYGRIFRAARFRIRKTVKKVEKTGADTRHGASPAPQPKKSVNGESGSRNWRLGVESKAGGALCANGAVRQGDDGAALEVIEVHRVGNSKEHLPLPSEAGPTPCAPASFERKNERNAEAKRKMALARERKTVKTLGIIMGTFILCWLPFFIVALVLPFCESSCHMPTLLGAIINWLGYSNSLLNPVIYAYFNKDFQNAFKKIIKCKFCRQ
# 5-HT2A receptor = 5-HT2A receptor (Homo sapiens, UniProt P28223); assay: [3H]ketanserin competition radioligand binding assay (SPA); conditions: control ligands
# Sequence of 5-HT2A receptor (P28223 whole entry): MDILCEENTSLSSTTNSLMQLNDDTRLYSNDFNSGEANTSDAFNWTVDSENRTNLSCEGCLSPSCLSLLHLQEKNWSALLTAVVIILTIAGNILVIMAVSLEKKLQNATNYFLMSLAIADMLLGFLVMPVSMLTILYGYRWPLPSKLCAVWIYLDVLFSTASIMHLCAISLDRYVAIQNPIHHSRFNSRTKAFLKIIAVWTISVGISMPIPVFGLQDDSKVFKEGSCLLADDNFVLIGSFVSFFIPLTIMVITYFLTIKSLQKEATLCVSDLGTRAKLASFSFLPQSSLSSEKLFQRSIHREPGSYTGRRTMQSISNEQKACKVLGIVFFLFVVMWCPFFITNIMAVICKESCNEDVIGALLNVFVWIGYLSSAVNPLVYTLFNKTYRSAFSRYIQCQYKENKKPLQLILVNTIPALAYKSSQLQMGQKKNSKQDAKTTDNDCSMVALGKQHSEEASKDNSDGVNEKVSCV
smiles,measurement,setting,value
"CN(C)CCc1c[nH]c2cccc(OP(=O)(O)O)c12 [psilocybin, reference compound]",stability in assay buffer (in words),[1],stability of psilocybin was confirmed in assay buffer
same,Plasma concentration of administered (parent) compound,"[2]; 1 mg/kg i.v., 0.5 h, individual mice",No Peak
same,Plasma concentration of administered (parent) compound,"[2]; 1 mg/kg i.v., 1 h, individual mice",No Peak
same,Plasma concentration of administered (parent) compound,"[2]; 1 mg/kg i.v., 2 h, individual mice",No Peak
same,Plasma concentration of administered (parent) compound,"[2]; 1 mg/kg i.v., 4 h, individual mice",No Peak
same,Plasma concentration of administered (parent) compound,"[2]; 1 mg/kg i.v., 6 h, individual mice",No Peak
same,Plasma concentration of administered (parent) compound,"[2]; 1 mg/kg i.v., 8 h, individual mice",No Peak
same,tmax (parent compound in plasma),"[2]; 1 mg/kg i.v., individual mice",5 min
same,tmax (parent compound in plasma),"[2]; 1 mg/kg i.v., mean ± SD",5 ± 0 min
same,Plasma concentration of psilocin,"[2]; 1.56 mg/kg oral of administered compound, individual mice",BLQ
same,Plasma concentration of psilocin,"[2]; 3 mg/kg oral of administered compound, individual mice",BLQ
same,concentration at 5 min,"[2]; male, C57Bl/6, mouse, plasma, intravenous, 1 mg/kg, Plasma concentration of administered (parent) compound, 1 mg/kg i.v., 5 min, mean ± SD",144 ± 167 ng/mL
same,concentration at 0.25 h,"[2]; male, C57Bl/6, mouse, plasma, intravenous, 1 mg/kg, Plasma concentration of administered (parent) compound, 1 mg/kg i.v., 0.25 h, mean ± SD",13.2 ± 12.5 ng/mL
same,concentration at 0.5 h,"[2]; male, C57Bl/6, mouse, plasma, intravenous, 1 mg/kg, Plasma concentration of administered (parent) compound, 1 mg/kg i.v., 0.5 h, mean ± SD",4.28 ng/mL
same,concentration at 1 h,"[2]; male, C57Bl/6, mouse, plasma, intravenous, 1 mg/kg, Plasma concentration of administered (parent) compound, 1 mg/kg i.v., 1 h, individual mice",1.21 ng/mL
same,concentration at 1 h,"[2]; male, C57Bl/6, mouse, plasma, intravenous, 1 mg/kg, Plasma concentration of administered (parent) compound, 1 mg/kg i.v., 1 h, mean",1.21 ng/mL
same,concentration at 8 h,"[2]; male, C57Bl/6, mouse, plasma, intravenous, 1 mg/kg, Plasma concentration of administered (parent) compound, 1 mg/kg i.v., 8 h, individual mice",2.54 ng/mL
same,Cmax,"[2]; male, C57Bl/6, mouse, plasma, iv, 1 mg/kg, Cmax (parent compound in plasma), 1 mg/kg i.v., mean ± SD",144 ± 167 ng/mL
same,detectability of administered compound in plasma (in words),[2]; oral vs i.v. dosing,only detectable in i.v. administered animals; also recorded: not detectable in orally administered animals at any dose
same,metabolic stability / conversion to psilocin (in words),in vitro; HLM,stable in liver fractions with no conversion to psilocin
same,metabolic stability / conversion to psilocin (in words),in vitro; HLS9,stable in liver fractions with no conversion to psilocin
same,metabolic stability / conversion to psilocin (in words),[3],stable in serum with no conversion to psilocin
NCCc1c[nH]c2ccc(O)cc12 [serotonin],cAMP level / 5-HT1A receptor modulation (in words),5-HT1A receptor,reduction in cAMP levels
N[C@@H](Cc1c[nH]c2ccccc12)C(=O)O [tryptophan],cAMP level / 5-HT1A receptor modulation (in words),5-HT1A receptor,no reduction in cellular cAMP levels
same,5-HT2A competition binding (in words),5-HT2A receptor,negative control (no binding)
